Results on 15 molecules are retold here after patent US7045532B2 (Millennium Pharmaceuticals, Inc., priority 1999, dated 2006).

Bounds are passed on as bounds.

One experiment addresses T1, ACE-2 (Homo sapiens, UniProt Q9BYF1).
T1 construct: a stop codon inserted after the serine immediately preceding the transmembrane domain; made in house; host or cells: CHO K1 cells (transient transfection, purified from conditioned medium)
Description: ACE-2 Competitive Substrate Assay (ACS Assay). The experiment is classed as biochemical. The following applies: Ki class; compounds tested in 5% DMSO, 12 concentrations; read-out: Human ACE-2 Activity.

In the next experiment the target is T2, Carboxypeptidase A (Bos taurus, UniProt P00730).
T2 sequence (P00730 111-419): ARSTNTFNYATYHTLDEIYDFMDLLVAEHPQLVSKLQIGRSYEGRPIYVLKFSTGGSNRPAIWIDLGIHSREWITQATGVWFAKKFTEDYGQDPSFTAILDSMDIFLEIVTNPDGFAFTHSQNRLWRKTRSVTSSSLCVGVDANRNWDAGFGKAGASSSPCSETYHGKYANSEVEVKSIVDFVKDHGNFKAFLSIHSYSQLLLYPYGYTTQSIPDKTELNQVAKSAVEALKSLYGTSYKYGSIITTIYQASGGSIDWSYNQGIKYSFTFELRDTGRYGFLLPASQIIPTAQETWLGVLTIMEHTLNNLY
Description: Carboxypeptidase A activity assay. Type of experiment: biochemical. To be noted: Ki class; compounds tested in 5% DMSO, 12 concentrations. An outline of the steps: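 Ki obtained by correcting apparent Ki for substrate, Ki=Kiapp/(1+[S]/Km), from 12-concentration series. Enzyme activity read by absorbance at 328 nm with 5% DMSO present, EDTA stop.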

The target of another experiment is T3, ACE (Sigma, A2580) (Sus scrofa, UniProt F1RRW5).
T3 construct: ACE from porcine kidney; purchased Sigma A2580; host or cells: porcine kidney
T3 sequence (F1RRW5 34-1309): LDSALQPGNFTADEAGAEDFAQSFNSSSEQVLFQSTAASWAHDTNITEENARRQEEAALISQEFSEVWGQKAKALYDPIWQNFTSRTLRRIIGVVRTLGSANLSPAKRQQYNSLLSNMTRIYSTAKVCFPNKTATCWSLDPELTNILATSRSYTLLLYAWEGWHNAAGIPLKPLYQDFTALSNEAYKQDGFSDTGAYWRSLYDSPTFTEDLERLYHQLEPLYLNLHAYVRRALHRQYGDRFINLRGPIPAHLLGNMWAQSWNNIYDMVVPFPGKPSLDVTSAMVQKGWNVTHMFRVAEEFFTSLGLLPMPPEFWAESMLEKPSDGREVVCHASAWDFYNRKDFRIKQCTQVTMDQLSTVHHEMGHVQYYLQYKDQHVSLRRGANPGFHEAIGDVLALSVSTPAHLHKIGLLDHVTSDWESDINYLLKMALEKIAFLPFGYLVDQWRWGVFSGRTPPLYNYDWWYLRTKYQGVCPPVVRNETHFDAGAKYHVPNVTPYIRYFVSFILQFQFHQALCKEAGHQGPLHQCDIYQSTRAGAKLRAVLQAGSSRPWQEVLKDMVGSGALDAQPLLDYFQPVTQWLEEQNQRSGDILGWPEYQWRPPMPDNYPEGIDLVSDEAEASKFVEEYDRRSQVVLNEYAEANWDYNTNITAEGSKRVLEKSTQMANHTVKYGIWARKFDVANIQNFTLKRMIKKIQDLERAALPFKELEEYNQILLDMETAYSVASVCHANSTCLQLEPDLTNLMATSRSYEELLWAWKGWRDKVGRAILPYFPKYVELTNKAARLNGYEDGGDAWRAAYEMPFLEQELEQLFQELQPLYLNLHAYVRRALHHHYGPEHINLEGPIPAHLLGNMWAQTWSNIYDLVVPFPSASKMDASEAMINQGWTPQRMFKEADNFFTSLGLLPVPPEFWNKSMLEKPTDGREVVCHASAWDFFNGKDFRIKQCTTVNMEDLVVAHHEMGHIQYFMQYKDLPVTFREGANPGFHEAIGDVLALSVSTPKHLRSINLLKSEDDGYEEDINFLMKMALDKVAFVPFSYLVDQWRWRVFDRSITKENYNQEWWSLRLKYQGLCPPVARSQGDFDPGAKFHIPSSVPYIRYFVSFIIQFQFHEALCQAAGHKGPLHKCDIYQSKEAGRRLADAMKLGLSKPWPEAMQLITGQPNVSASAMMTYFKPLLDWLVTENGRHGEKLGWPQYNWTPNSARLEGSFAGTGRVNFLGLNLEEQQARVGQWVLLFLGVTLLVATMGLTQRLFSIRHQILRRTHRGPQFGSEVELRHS
The experiment can be described thus: ACE enzymatic activity assay. The experiment is classed as biochemical, porcine. To be noted: Ki class; compounds tested in 5% DMSO, 12 concentrations. An outline of the steps:
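Fluorogenic substrate cleavage by 1 nM ACE, read at 320/405 nm after EDTA stop at ~30 min. Reactions at 25 °C, pH 7.5, in HEPES/NaCl/Brij-35 buffer; compounds tested at 12 concentrations in 5% DMSO.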

T1 sequence (Q9BYF1 18-740 limits assumed): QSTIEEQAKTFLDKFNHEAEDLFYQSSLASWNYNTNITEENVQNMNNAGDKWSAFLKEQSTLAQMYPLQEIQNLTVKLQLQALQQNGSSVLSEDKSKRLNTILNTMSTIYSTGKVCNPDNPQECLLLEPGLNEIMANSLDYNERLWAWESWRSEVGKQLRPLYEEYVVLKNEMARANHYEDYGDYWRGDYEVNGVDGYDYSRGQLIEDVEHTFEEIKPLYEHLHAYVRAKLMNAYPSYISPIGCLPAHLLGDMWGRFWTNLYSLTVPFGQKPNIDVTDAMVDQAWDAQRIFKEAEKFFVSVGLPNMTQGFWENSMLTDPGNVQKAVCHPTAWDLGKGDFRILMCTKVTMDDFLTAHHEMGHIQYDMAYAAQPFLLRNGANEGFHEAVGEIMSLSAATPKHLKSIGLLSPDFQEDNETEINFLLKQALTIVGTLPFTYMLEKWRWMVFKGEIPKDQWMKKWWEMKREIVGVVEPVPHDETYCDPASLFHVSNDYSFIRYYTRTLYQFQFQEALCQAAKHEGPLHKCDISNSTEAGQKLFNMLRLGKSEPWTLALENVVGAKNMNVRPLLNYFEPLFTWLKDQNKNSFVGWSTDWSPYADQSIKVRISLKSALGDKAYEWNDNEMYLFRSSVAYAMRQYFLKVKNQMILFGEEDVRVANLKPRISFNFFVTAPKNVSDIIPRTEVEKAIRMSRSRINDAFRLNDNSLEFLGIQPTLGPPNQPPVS

For `CC(C)C[C@@H](N[C@H](Cc1cscn1)C(=O)O)C(=O)O` [CO, 2-(1-Carboxy-2-thiazol-4-yl-ethylamino)-4-methyl-pentanoic acid], the Ki on ACE-2 is greater than 0.5 µM; on Carboxypeptidase A, greater than 50 µM; on ACE (Sigma, A2580), greater than 50 µM.

As for `CC(C)CC(NC(CC(=O)O)c1ccccc1)C(=O)O` (stereo not drawn) [CQ, 2-(2-Carboxy-1-phenyl-ethylamino)-4-methyl-pentanoic acid], the Ki is greater than 0.5 µM at ACE-2; greater than 50 µM at Carboxypeptidase A; greater than 50 µM at ACE (Sigma, A2580).

For the molecule `Cc1ccc(C[C@H](CC(=O)O)NC(CC(C)C)C(=O)O)cc1` (stereo partly drawn) [CS, 2-[2-Carboxy-1-(4-methyl-benzyl)-ethylamino]-4-methyl-pentanoic acid], the Ki on ACE-2 is greater than 0.5 µM; at Carboxypeptidase A it was greater than 50 µM; on ACE (Sigma, A2580) it was greater than 50 µM.

With `CC(C)C[C@H](NCCCc1ccccc1)C(=O)O` [CY, 4-Methyl-2-(3-phenyl-propylamino)-pentanoicacid], the Ki was greater than 0.5 µM at ACE-2; greater than 50 µM at Carboxypeptidase A; greater than 50 µM at ACE (Sigma, A2580).

Turning to `CC(C)C[C@H](N[C@@H](CCc1ccccc1)C(=O)O)C(=O)OC(C)(C)C` [CZ, 2-(1-Carboxy-3-phenyl-propylamino)-4-methyl-pentanoic acid tert-butyl ester], the Ki is greater than 0.5 µM on ACE-2; greater than 50 µM on Carboxypeptidase A; greater than 50 µM at ACE (Sigma, A2580).

On to `CC(C)C[C@H](N[C@H](CCc1ccccc1)C(=O)O)C(=O)OC(C)(C)C` [DA, 2-(1-Carboxy-3-phenyl-propylamino)-4-methyl-pentanoic acid tert-butyl ester], for which the Ki at ACE-2 is greater than 0.5 µM; on Carboxypeptidase A, greater than 50 µM; on ACE (Sigma, A2580), greater than 50 µM.

In the case of `CC(C)C[C@H](N[C@@H](CCc1ccccc1)C(=O)O)C(N)=O` [DB, 2-(1-Carbamoyl-3-methyl-butylamino)-4-phenyl-butync acid], the Ki was greater than 0.5 µM on ACE-2; greater than 50 µM on Carboxypeptidase A; greater than 50 µM on ACE (Sigma, A2580).

Turning to `CC(C)C[C@H](N[C@H](CCc1ccccc1)C(=O)O)C(N)=O` [DC, 2-(1-Carbamoyl-3-methyl-butylamino)-4-phenyl-butync acid], the Ki at ACE-2 was greater than 0.5 µM; at Carboxypeptidase A, greater than 50 µM; at ACE (Sigma, A2580), greater than 50 µM.

On to `COC(=O)[C@H](CC(C)C)NC(=O)NCc1ccccc1` [DF, 2-(3-Benzyl-ureido)-4-methyl-pentanoic acidmethyl ester], for which the Ki is greater than 0.5 µM at ACE-2; greater than 50 µM on Carboxypeptidase A; greater than 50 µM at ACE (Sigma, A2580).

For `CC(C)CCNC(CCc1ccccc1)C(=O)O` (stereo not drawn) [DR, 2-(3-Methyl-butylamino)-4-phenyl-butync acid], the Ki at ACE-2 was greater than 0.5 µM; at Carboxypeptidase A, 10 to 50 µM; on ACE (Sigma, A2580), greater than 50 µM.

As to `CC(C)C[C@H](NC(=O)NCc1ccccc1)C(=O)O` [DU, 2-(3-Benzyl-ureido)-4-methyl-pentanoic acid], the Ki on ACE-2 is greater than 0.5 µM; at Carboxypeptidase A it was 10 to 50 µM; on ACE (Sigma, A2580), greater than 50 µM.

As for `CC(C)C[C@H](NC(=O)NCCc1ccccc1)C(=O)O` [DV, 4-Methyl-2-(3-phenethyl-ureido)-pentanoic acid], the Ki is greater than 0.5 µM on ACE-2; less than 10 µM at Carboxypeptidase A; greater than 50 µM on ACE (Sigma, A2580).

`CC(C)C[C@H](NCC(=O)c1ccccc1)C(=O)O` [DW, 4-Methyl-2-(2-oxo-2-phenyl-ethylamino)-pentanoic acid]: the Ki was greater than 0.5 µM on ACE-2; less than 10 µM at Carboxypeptidase A; greater than 50 µM on ACE (Sigma, A2580).

As for `CC(C)CCN[C@@H](Cc1c[nH]cn1)C(=O)O` [DY, 3-(1H-Imidazol-4-yl)-2-(3-methyl-butylamino)-propionic acid], the Ki on ACE-2 is greater than 0.5 µM; at Carboxypeptidase A, greater than 50 µM; on ACE (Sigma, A2580), greater than 50 µM.

With `CC(C)CC(NCCc1c[nH]cn1)C(=O)O` (stereo not drawn) [DZ, 2-[2-(1H-imidazol-4-yl)-ethylamino]-4-methyl-pentanoic acid], the Ki is greater than 0.5 µM at ACE-2; greater than 50 µM at Carboxypeptidase A; greater than 50 µM on ACE (Sigma, A2580).
